Assay results from PMC7026418, “The kinase polypharmacology landscape of clinical PARP inhibitors” (Scientific Reports, 2020).
Read-outs that look alike come from different tables or passages of the source. Each block holds one compound with its values, some of them ahead of it.

Experiments:
Test in all cases: biochemical
Parameters in all cases: DiscoveRx KINOMEscan active site-directed competition binding; percent of control kinase bound to immobilised ligand
EPHA7 = EPHA7 (Homo sapiens, UniProt Q15375)
CLK2 = CLK2 (Homo sapiens, UniProt P49760)
AKT1 = AKT1 (Homo sapiens, UniProt P31749)
VRK2 = VRK2 (Homo sapiens, UniProt Q86Y07)
BRSK1 = molecular target: T1, BRSK1 (Homo sapiens, UniProt Q8TDC3)
T1 sequence (Q8TDC3 1-778): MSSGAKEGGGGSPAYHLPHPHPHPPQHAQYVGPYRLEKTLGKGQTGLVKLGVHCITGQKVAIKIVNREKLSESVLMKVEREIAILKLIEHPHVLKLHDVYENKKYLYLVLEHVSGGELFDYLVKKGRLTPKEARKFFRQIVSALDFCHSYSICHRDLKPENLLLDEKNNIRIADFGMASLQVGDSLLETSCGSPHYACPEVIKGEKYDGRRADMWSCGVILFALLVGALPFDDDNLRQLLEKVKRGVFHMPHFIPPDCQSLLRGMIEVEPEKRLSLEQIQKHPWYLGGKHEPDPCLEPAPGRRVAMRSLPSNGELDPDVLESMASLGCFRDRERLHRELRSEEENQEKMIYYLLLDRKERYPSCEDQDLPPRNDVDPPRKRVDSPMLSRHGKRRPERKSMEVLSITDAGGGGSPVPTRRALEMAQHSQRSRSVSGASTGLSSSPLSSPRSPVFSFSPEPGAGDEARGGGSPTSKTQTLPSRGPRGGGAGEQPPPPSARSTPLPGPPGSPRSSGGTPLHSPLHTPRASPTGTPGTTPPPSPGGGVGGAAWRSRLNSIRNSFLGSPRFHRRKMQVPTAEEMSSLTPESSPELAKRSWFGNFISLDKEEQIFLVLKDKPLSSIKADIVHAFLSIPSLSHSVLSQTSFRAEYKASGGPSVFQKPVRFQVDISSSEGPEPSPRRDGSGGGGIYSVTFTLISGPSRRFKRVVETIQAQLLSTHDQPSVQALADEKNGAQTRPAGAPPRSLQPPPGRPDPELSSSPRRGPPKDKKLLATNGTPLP

MAP4K4 = MAP4K4 (Homo sapiens, UniProt O95819)
DYRK1B = DYRK1B (Homo sapiens, UniProt Q9Y463); conditions: for remaining binding at 10 µM: binding competition, % of control
Method: (§1) The DiscoveRx KinomeScan platform (https://www.discoverx.com), utilizing an in vitro active site-directed competition binding assay, was used to quantitatively measure interactions between the four clinical PARP inhibitors and their largest available kinase panel. At the time when the assays were performed (date: 29/11/2016), 468 in vitro binding assays were available, corresponding to 392 unique human kinases (76% of the human kinome)[39] (Supplementary Table 5). To follow up the computational analysis, we performed a comprehensive in vitro kinome screen. To do this we employed the DiscoveRx (https://www.discoverx.com) KinomeScan in vitro binding technology[37],[38] that has been widely used for kinome profiling in drug discovery. At the time of conducting our screen, this kinome panel was the largest commercially available and comprised 468 in vitro binding assays corresponding to 392 unique human kinases (76% of the human kinome)[39] (Supplementary Table 5). Also included were assays comprising mutated, deleted, phosphorylated or autoinhibited forms of proteins (n = 63), secondary or pseudokinase domains (n = 8), non-human isoforms (n = 3) and CDK complexes with different cyclins (n = 2) (Supplementary Table 5). The assays were performed at a single relatively high concentration of 10 μM to identify initially both low and high potency off-targets. The results of our use of the in vitro binding assay for kinome profiling reveal marked differences between the kinase polypharmacology of PARP inhibitors. […] The binding technology used involves a competition assay, defining activity as ≥65% of the kinase being competed off an immobilised ligand at 10 μM[38].

LTK = LTK (Homo sapiens, UniProt P29376); conditions: for remaining binding at 10 µM: binding competition, % of control
Method: as §1

STK33 = STK33 (Homo sapiens, UniProt Q9BYT3); conditions: for remaining binding at 10 µM: binding competition, % of control
Method: as §1

[1] = read-out: Niraparib (MK-4827) / %Ctrl @ 10000nM
[2] = read-out: Niraparib (MK-4827) / %Ctrl @ 10000nM, binding competition
[3] = read-out: Olaparib / %Ctrl @ 10000nM
[4] = read-out: Rucaparib / %Ctrl @ 10000nM, binding competition, % of control
[5] = read-out: Rucaparib / %Ctrl @ 10000nM, binding competition
[6] = read-out: Talazoparib (BMN 673) / %Ctrl @ 10000nM

Sequence of VRK2 (Q86Y07 whole entry): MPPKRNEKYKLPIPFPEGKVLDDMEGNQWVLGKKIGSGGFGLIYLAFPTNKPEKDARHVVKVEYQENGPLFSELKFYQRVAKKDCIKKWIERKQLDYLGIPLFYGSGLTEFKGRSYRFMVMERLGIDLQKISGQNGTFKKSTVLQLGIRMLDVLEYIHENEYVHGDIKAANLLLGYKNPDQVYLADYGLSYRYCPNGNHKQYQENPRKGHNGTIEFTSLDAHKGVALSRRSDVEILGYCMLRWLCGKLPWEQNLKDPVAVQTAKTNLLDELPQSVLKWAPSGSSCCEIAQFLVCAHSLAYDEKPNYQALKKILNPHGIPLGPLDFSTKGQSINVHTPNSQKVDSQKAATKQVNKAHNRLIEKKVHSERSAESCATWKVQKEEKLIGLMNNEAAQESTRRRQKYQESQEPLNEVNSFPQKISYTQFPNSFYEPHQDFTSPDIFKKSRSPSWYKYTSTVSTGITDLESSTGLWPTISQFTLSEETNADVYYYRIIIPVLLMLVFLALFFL
Sequence of AKT1 (P31749 whole entry): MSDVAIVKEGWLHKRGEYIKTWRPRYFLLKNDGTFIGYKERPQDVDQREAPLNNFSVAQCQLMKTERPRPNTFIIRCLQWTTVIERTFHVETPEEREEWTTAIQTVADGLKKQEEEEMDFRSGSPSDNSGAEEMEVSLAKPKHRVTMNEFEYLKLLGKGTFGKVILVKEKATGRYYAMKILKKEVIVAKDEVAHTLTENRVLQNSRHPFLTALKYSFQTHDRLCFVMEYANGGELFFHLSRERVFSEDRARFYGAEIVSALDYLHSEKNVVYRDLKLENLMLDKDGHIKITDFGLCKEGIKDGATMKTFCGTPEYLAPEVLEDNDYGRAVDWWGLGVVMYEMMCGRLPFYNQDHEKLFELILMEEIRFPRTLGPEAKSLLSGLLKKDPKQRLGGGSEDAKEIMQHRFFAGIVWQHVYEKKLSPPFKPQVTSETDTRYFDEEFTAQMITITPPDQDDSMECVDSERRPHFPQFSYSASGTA
Sequence of STK33 (Q9BYT3 whole entry): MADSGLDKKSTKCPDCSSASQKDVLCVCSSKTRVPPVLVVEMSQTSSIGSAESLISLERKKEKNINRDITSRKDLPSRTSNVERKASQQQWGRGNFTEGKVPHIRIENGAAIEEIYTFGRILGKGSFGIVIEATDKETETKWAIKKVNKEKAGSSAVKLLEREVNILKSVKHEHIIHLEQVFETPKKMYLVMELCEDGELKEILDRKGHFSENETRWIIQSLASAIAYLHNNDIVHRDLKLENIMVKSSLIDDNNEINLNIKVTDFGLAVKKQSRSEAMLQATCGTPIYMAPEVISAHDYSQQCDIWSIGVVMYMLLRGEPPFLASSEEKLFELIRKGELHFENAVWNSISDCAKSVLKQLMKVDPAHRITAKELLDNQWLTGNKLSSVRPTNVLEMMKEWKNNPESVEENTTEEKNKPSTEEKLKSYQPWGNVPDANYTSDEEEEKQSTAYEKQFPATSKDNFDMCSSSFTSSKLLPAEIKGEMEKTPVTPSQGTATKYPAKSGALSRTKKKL
Sequence of DYRK1B (Q9Y463 whole entry): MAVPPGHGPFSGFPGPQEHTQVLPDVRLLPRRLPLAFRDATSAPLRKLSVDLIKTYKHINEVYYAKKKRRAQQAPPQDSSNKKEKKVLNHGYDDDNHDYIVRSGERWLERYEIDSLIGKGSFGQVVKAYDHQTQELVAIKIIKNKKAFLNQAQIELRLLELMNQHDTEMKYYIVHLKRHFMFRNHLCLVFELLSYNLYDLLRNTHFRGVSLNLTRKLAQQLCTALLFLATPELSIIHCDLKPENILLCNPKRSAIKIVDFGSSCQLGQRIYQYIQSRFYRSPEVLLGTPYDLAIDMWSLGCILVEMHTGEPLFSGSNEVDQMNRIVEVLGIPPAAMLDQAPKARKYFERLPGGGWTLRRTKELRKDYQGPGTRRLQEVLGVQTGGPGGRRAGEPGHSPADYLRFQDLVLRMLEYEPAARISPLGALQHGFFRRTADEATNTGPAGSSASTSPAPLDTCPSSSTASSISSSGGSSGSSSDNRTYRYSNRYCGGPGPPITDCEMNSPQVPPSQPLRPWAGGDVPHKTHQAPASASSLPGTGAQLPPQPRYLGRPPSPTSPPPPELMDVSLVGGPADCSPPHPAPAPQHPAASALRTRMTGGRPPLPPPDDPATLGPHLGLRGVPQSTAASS
Sequence of MAP4K4 (O95819 whole entry): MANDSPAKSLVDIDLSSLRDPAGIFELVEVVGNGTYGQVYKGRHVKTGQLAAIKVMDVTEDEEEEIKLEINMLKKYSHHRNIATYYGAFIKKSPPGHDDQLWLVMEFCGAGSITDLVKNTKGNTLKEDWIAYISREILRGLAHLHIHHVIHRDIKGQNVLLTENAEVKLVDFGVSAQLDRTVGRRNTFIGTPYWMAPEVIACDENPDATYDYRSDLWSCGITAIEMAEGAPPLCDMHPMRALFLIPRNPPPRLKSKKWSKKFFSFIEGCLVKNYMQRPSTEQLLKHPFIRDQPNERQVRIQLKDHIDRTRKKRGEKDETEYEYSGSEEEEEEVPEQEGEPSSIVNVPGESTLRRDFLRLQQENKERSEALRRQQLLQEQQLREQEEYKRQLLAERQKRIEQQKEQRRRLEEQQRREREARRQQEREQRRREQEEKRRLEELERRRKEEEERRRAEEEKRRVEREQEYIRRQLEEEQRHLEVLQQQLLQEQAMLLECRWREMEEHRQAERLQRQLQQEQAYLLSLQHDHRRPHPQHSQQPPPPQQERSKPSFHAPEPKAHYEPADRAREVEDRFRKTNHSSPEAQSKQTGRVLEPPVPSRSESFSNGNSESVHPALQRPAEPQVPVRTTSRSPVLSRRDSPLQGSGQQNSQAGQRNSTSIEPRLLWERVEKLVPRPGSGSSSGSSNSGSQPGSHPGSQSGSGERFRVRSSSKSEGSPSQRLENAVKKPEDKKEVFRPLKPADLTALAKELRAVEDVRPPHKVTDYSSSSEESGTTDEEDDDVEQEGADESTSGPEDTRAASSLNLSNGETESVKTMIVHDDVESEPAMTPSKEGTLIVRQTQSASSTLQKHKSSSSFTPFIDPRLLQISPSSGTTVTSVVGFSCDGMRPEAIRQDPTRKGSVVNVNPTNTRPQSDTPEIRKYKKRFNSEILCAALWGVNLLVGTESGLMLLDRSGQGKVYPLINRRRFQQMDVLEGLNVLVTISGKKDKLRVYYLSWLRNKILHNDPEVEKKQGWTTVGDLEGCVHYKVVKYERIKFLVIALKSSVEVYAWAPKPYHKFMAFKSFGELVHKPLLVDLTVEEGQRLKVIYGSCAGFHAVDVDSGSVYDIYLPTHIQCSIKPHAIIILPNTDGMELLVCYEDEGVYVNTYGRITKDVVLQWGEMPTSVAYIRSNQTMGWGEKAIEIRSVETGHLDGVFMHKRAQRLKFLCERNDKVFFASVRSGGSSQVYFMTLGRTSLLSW
Sequence of LTK (P29376 whole entry): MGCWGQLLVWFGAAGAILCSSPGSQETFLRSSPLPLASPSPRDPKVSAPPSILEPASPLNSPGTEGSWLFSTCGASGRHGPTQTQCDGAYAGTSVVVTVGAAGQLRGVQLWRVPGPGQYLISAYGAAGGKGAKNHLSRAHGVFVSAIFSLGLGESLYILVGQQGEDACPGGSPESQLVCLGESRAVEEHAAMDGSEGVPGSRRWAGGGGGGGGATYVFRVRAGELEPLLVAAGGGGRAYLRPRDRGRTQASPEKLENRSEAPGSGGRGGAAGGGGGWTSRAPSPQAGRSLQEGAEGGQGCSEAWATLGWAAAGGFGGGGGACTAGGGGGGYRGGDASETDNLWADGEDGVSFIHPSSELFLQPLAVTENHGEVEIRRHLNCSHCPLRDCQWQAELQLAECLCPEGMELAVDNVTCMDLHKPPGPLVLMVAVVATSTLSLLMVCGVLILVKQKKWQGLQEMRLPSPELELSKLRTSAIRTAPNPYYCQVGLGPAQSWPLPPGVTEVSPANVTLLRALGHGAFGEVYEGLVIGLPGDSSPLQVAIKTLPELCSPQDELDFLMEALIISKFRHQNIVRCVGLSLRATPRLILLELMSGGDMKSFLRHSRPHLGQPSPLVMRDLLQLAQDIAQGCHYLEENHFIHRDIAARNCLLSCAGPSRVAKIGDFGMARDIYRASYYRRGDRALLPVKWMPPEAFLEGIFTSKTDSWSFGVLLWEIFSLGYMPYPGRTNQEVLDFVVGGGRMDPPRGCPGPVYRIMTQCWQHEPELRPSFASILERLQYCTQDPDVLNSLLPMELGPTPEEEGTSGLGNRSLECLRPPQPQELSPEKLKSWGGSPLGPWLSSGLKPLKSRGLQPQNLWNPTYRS
Sequence of CLK2 (P49760 whole entry): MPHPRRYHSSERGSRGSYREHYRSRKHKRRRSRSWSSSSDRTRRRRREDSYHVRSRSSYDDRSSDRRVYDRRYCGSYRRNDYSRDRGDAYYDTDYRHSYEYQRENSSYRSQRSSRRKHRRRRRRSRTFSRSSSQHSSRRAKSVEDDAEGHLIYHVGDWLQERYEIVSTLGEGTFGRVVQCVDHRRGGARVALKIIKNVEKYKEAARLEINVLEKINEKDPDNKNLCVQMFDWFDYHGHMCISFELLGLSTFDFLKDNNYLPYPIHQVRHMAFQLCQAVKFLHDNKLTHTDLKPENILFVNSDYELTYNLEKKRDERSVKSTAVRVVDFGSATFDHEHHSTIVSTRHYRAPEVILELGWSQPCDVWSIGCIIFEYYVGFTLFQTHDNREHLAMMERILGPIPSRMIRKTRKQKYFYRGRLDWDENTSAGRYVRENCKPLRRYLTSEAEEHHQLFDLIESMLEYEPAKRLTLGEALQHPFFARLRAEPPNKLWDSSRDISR

Structure (SMILES): NC(=O)c1cccc2cn(-c3ccc([C@@H]4CCCNC4)cc3)nc12 [Niraparib]
percent of control binding at 10 µM (EPHA7; [1]): 89% | percent of control binding at 10 µM (CLK2; [1]): 36% | percent of control binding at 10 µM (AKT1; [1]): 99% | percent of control binding at 10 µM (VRK2; [1]): 65% | percent of control binding at 10 µM (BRSK1; [1]): 92% | percent of control binding at 10 µM (MAP4K4; [1]): 94% | percent of control kinase binding at 10 µM (DYRK1B; [2]): 0% | percent of control kinase binding at 10 µM (LTK; [2]): 71%

percent of control binding at 10 µM (EPHA7; [3]): 100% | percent of control binding at 10 µM (CLK2; [3]): 100% | percent of control binding at 10 µM (AKT1; [3]): 100% | percent of control binding at 10 µM (VRK2; [3]): 99% | percent of control binding at 10 µM (BRSK1; [3]): 91% | percent of control binding at 10 µM (MAP4K4; [3]): 100% | remaining binding at 10 µM (STK33; [3]): 100% | remaining binding at 10 µM (DYRK1B; [3]): 97% | remaining binding at 10 µM (LTK; [3]): 93%
Structure (SMILES): O=C(c1cc(Cc2n[nH]c(=O)c3ccccc23)ccc1F)N1CCN(C(=O)C2CC2)CC1 [Olaparib]

percent of control binding at 10 µM (EPHA7; [4]): 100% | percent of control binding at 10 µM (CLK2; [4]): 32% | percent of control binding at 10 µM (AKT1; [4]): 91% | percent of control binding at 10 µM (VRK2; [4]): 95% | percent of control binding at 10 µM (BRSK1; [4]): 74% | percent of control binding at 10 µM (MAP4K4; [4]): 82% | percent of control kinase binding at 10 µM (STK33; [5]): 89% | percent of control kinase binding at 10 µM (DYRK1B; [5]): 5.7% | percent of control kinase binding at 10 µM (LTK; [5]): 89%
Structure (SMILES): CNCc1ccc(-c2[nH]c3cc(F)cc4c3c2CCNC4=O)cc1 [Rucaparib]

percent of control binding at 10 µM (EPHA7; [6]): 96% | percent of control binding at 10 µM (CLK2; [6]): 94% | percent of control binding at 10 µM (AKT1; [6]): 92% | percent of control binding at 10 µM (VRK2; [6]): 100% | percent of control binding at 10 µM (BRSK1; [6]): 100% | percent of control binding at 10 µM (MAP4K4; [6]): 100% | remaining binding at 10 µM (STK33; [6]): 99% | remaining binding at 10 µM (DYRK1B; [6]): 95% | remaining binding at 10 µM (LTK; [6]): 91%
Structure (SMILES): Cn1ncnc1[C@H]1c2n[nH]c(=O)c3cc(F)cc(c23)N[C@@H]1c1ccc(F)cc1 [Talazoparib]
